Values joined by “and” are separate entries in the source; they are usually repeats but may differ in a detail not shown here. Identical values can stand only once.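 Tested at 5 concentrations; 48 h exposure; 96-well plates; endpoints linearly interpolated, else capped at highest concentration. GI50 is the concentration that inhibits growth by half. TGI is the concentration that stops growth completely.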
Tests used:
Test in all cases: NCI anticancer screen, dose series, 48 h
ACHN renal = tested on: ACHN renal
SF-295 CNS = tested on: SF-295 CNS
786-0 renal = tested on: 786-0 renal
UACC-62 melanoma = tested on: UACC-62 melanoma
SF-268 CNS = tested on: SF-268 CNS
CAKI-1 renal = tested on: CAKI-1 renal
MOLT-4 leukemia = tested on: MOLT-4 leukemia
COLO 205 colon = tested on: COLO 205 colon
NCI-H460 lung = tested on: NCI-H460 lung
SK-MEL-5 melanoma = tested on: SK-MEL-5 melanoma
T-47D breast = tested on: T-47D breast
OVCAR-3 ovarian = tested on: OVCAR-3 ovarian
TK-10 renal = tested on: TK-10 renal
NCI-H23 lung = tested on: NCI-H23 lung
HT29 colon = tested on: HT29 colon
HOP-92 NSCLC = tested on: HOP-92 NSCLC

| Compound | TGI (ACHN renal) [µM] | TGI (SF-295 CNS) [µM] | TGI (786-0 renal) [µM] | TGI (UACC-62 melanoma) [µM] | TGI (SF-268 CNS) [µM] | TGI (CAKI-1 renal) [µM] | TGI (MOLT-4 leukemia) [µM] | TGI (COLO 205 colon) [µM] | TGI (NCI-H460 lung) [µM] | TGI (SK-MEL-5 melanoma) [µM] | TGI (T-47D breast) [µM] | TGI (OVCAR-3 ovarian) [µM] | TGI (TK-10 renal) [µM] | TGI (NCI-H23 lung) [µM] | TGI (HT29 colon) [µM] | TGI (HOP-92 NSCLC) [µM] | GI50 (CAKI-1 renal) [µM] | GI50 (SK-MEL-5 melanoma) [µM] | GI50 (MOLT-4 leukemia) |
| --- | --- | --- | --- | --- | --- | --- | --- | --- | --- | --- | --- | --- | --- | --- | --- | --- | --- | --- | --- |
| N=C1C(=N)c2ccccc2-c2ccccc21 | 2.72 | 2.98 | 4.46 | 2.78 | 4.16 | 3.08 | 1.61 | 3.24 | 2.88 | 1.53 | 1.57 | 1.41 | 3.01 | 1.92 | 3.81 |  |  |  |  |
| CCCNC(=S)/N=C\c1c(O)c2ccccc2oc1=O | > 100 | > 100 | > 100 | > 100 | > 100 | > 100 | > 100 | > 100 | > 100 | > 100 |  | > 100 | > 100 | > 100 | > 100 | > 100 |  |  |  |
| CC1[C@@H](OCc2ccccc2)COC(=O)N1Cc1ccccc1 (stereo partly drawn) | > 100 | > 100 | > 100 | > 100 | > 100 |  | > 100 | > 100 |  | > 100 |  | > 100 | > 100 | > 100 | > 100 | 92.9 |  |  |  |
| CNC(=O)CCNC(=O)CCC(=O)OC | > 100 | > 100 | > 100 | > 100 | > 100 | > 100 | > 100 | > 100 | > 100 | > 100 | > 100 | > 100 | > 100 | > 100 | > 100 |  |  |  |  |
| COc1ccc2c3ccc4c(c3n(C)c2c1)C(=O)c1ccccc1C4=O | > 100 | > 100 | > 100 | > 100 | > 100 |  | > 100 | > 100 |  | > 100 |  |  |  | > 100 | > 100 | > 100 |  |  |  |
| [N-]=[N+]=NC1C(Br)C(=O)NC(=O)N1[C@H]1C[C@H](O)[C@@H](CO)O1 (stereo partly drawn) | > 100 | > 100 | > 100 | > 100 | > 100 | > 100 | > 100 | > 100 | > 100 | > 100 |  | > 100 | > 100 | > 100 | > 100 | > 100 | 66.3 | 42.2 |  |
| CCC1(N=[N+]=[N-])C(=O)Nc2cc(C)ccc2C1=O (stereo not drawn) | 51.2 | > 100 | > 100 | > 100 | > 100 | > 100 | > 100 | > 100 | > 100 | > 100 |  | > 100 | > 100 | > 100 | > 100 | > 100 |  |  |  |
| COC(=O)C1(O)c2ccccc2N=C2C(=O)c3ccccc3N21 (stereo not drawn) | > 100 | > 100 | > 100 |  | > 100 | > 100 | > 100 | > 100 | > 100 | > 100 |  | > 100 | > 100 | > 100 | > 100 | > 100 |  |  |  |
| CC(=O)OC1COC(n2c(N)c(C#N)c(C)c(C#N)c2=S)C(OC(C)=O)C1OC(C)=O (stereo not drawn) | > 100 | > 100 | > 100 | > 100 | > 100 | > 100 | > 100 |  | > 100 | > 100 | > 100 | > 100 | > 100 | > 100 | > 100 |  |  |  | > 100 µM and 43.2 µM |
| O=C(c1ccncc1)n1nc(-c2ccccc2)c(N=Nc2ccc([N+](=O)[O-])cc2)c1-c1ccccc1 |  | > 100 | > 100 | > 100 | > 100 | > 100 | > 100 | > 100 |  | > 100 |  | > 100 | > 100 | > 100 | > 100 | > 100 |  |  |  |
| COC(=O)CC1C(=O)OCc2c1cc1n(c2=O)Cc2c-1nc1ccccc1c2OC (stereo not drawn) | > 100 |  | > 100 | > 100 | > 100 | 34.4 | 32.3 | > 100 | > 100 | > 100 |  |  | > 100 | 97.9 | > 100 | > 100 |  |  |  |
| COC[n+]1cc2cc(OC)c(OC)cc2c2ccc3cc(OC)c(OC)cc3c21 | > 100 | > 100 | > 100 | > 100 | > 100 | > 100 | > 100 | > 100 | > 100 | > 100 |  | > 100 | > 100 | > 100 | > 100 | > 100 |  |  |  |
| COC(=O)c1c(C(=O)OC)c2cc(C(=O)c3ccccc3)ccn2c1Cl | > 100 | 85.2 | > 100 | 88.4 | > 100 |  | 51.5 | > 100 | > 100 | 33.2 |  | 63.1 | > 100 | 88.1 | > 100 |  |  |  |  |
| CC1=NN(C(=O)Cc2ccccc2)C(=O)/C1=C\C=C\c1ccccc1 | > 100 | > 100 | > 100 |  | > 100 | > 100 | > 100 | > 100 |  | > 100 |  | > 100 | > 100 | > 100 | > 100 |  |  |  |  |
| O=C1CCCC2=C1CC1=C(CCCC1=O)N2c1cccc2ccccc12 | > 100 |  | > 100 | > 100 | > 100 | > 100 | > 100 |  | > 100 | > 100 |  | > 100 | > 100 | > 100 | > 100 | > 100 |  |  |  |
| CC(=O)c1ccc2c(c1)oc(=O)n2CCN1CCCCC1 | > 100 | > 100 | > 100 | > 100 | > 100 | > 100 | > 100 | > 100 | > 100 | > 100 |  | > 100 | > 100 | > 100 | > 100 |  |  |  |  |
